From patent publication US10329289B2, “6,7-dihydro-5H-pyrrolo[3,4-B]pyridin-5-one allosteric modulators of the M4 muscarinic acetylcholine receptor” (Merck Sharp & Dohme Corp., priority 2015, dated 2019)

What follows are compounds tested against T1, human M4 muscarinic acetylcholine receptor (Homo sapiens, UniProt P08173) (assay: human FLIPR-based M4 PAM assay (Ca2+ mobilization, CHO-K1 cells with human M4 receptor and Gαqi5)). Conditions: acetylcholine at 20% of maximum response, read-out: M4 PAM IP.
T1 construct: expressed in transfected cells; host or cells: CHO-K1
T1 sequence (P08173 1-479): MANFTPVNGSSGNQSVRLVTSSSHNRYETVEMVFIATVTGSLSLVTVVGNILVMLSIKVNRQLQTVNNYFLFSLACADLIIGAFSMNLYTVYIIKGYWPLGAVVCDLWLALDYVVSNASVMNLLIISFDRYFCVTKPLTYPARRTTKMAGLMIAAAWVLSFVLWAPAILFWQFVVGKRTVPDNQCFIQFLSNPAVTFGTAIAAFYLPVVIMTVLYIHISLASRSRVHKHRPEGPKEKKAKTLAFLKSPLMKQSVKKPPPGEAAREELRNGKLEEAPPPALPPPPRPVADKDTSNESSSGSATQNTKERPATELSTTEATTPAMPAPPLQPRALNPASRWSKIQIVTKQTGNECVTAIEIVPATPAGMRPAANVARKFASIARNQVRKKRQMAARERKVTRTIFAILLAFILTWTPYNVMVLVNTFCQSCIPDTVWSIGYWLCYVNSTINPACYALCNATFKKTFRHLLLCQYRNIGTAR
Assay type: cell-based
Summary of the method: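 CHO-K1 cells stably expressing human M4 and chimeric Gαqi5 were dye-loaded ~1 h at 37 °C and read for Ca2+ fluorescence. Compound followed by acetylcholine at an EC20 (sometimes an EC70 third addition); inflection point from a 4-parameter logistic fit.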

Row | SMILES | EC50
1 | Cc1cc2c(nc1N1CCC(Oc3ccc(N)nc3)CC1)CNC2=O [Example 104, 2-(4-((6-aminopyridin-3-yl)oxy)piperidin-1-yl)-3-methyl-6,7-dihydro-5H-pyrrolo[3,4-b]pyridin-5-one] | 60 nM
2 | C=Cc1cc2c(nc1N1CCC(Oc3ccc(OC)nc3)CC1)CNC2=O [Example 222, 2-(4-((6-methoxypyridin-3-yl)oxy)piperidin-1-yl)-3-vinyl-6,7-dihydro-5H-pyrrolo[3,4-b]pyridin-5-one] | 50 nM
3 | Cc1cc2c(nc1N1CCC(Oc3ccc4c(c3)CCC(=O)N4)CC1)CNC2=O [Example 118, 6-((1-(3-methyl-5-oxo-6,7-dihydro-5H-pyrrolo[3,4-b]pyridin-2-yl)piperidin-4-yl)oxy)-3,4-dihydroquinolin-2(1H)-one] | 141 nM
4 | COc1ccc(OC2CCN(c3nc4c(cc3C)C(=O)N(C)C4C)CC2)cn1 (centres unmarked) [Example 16, 2-(4-((6-methoxypyridin-3-yl)oxy)piperidin-1-yl)-3,6,7-trimethyl-6,7-dihydro-5H-pyrrolo[3,4-b]pyridin-5-one] | 81 nM
5 | Cc1cc2c(nc1N1CCC(Oc3ccc(F)c(F)c3)CC1)[C@@H](CO)N(C)C2=O [Example 347, (S)-2-(4-(3,4-difluorophenoxy)piperidin-1-yl)-7-(hydroxymethyl)-3,6-dimethyl-6,7-dihydro-5H-pyrrolo[3,4-b]pyridin-5-one] | 28 nM
6 | Cc1c(N2CCC(Oc3ccc4c(c3)C[C@H](O)C4)CC2)nc2c(c1C)C(=O)N(CCO)C2 [Example 264D, (R)-2-(4-((2-hydroxy-2,3-dihydro-1H-inden-5-yl)oxy)piperidin-1-yl)-6-(2-hydroxyethyl)-3,4-dimethyl-6,7-dihydro-5H-pyrrolo[3,4-b]pyridin-5-one] | 79 nM
7 | Cc1cc2c(nc1N1CCC(Oc3ccc(C#N)nc3)CC1)CNC2=O [Example 85, 5-((1-(3-methyl-5-oxo-6,7-dihydro-5H-pyrrolo[3,4-b]pyridin-2-yl)piperidin-4-yl)oxy)picolinonitrile] | 2620 nM
8 | COCCN1Cc2nc(N3CCC(Oc4ccc5c(c4)COC5)CC3)c(C)c(C)c2C1=O [Example 260A, 2-(4-((1,3-dihydro-2-benzofuran-5-yl)oxy)piperidin-1-yl)-6-(2-methoxyethyl)-3,4-dimethyl-6,7-dihydro-5H-pyrrolo[3,4-b]pyridin-5-one] | 43 nM
9 | Cc1cc2c(nc1N1CCC(OCC3CCCC3)CC1)CNC2=O [Example 175, 2-(4-(cyclopentylmethoxy)piperidin-1-yl)-3-methyl-6,7-dihydro-5H-pyrrolo[3,4-b]pyridin-5-one] | 139 nM
10 | COc1ccc(OC2CCN(c3nc4c(cc3C)C(=O)NC4(C)C)CC2)cn1 [Example 288, 2-(4-((6-Methoxypyridin-3-yl)ox)piperidin-1-yl)-3,7,7-trimethyl-6,7-dihydro-5H-pyrrolo[3,4-b]pyridin-5-one] | 1790 nM
11 | Cc1cc2c(nc1N1CCC(Oc3ccc(F)cc3)CC1)CNC2=O [Example 72, 2-(4-(4-fluorophenoxy)piperidin-1-yl)-3-methyl-6,7-dihydro-5H-pyrrolo[3,4-b]pyridin-5-one] | 30 nM
12 | COc1cncc(OC2CCN(c3nc4c(cc3C)C(=O)NC4)CC2)c1 [Example 101, 2-(4-((5-methoxypyridin-3-yl)oxy)piperidin-1-yl)-3-methyl-6,7-dihydro-5H-pyrrolo[3,4-b]pyridin-5-one] | 869 nM
13 | CCc1cc2c(nc1N1CC[C@@H](Oc3ccc4c(cnn4C)c3)[C@@H](F)C1)CN(CCO)C2=O [Example 240A, 3-ethyl-2-((3S,4R)-3-fluoro-4-((1-methyl-1H-indazol-5-yl)oxy)piperidin-1-yl)-6-(2-hydroxyethyl)-6,7-dihydro-5H-pyrrolo[3,4-b]pyridin-5-one] | 127 nM
14 | Cc1cc2c(nc1N1CCC(Oc3ccc(F)nc3)CC1)CNC2=O [Example 91, 2-(4-((6-fluoropyridin-3-yl)oxy)piperidin-1-yl)-3-methyl-6,7-dihydro-5H-pyrrolo[3,4-b]pyridin-5-one] | 60 nM
15 | Cc1c(N2CCC(Oc3cnc4c(c3)COC4)CC2)nc2c(c1C)C(=O)NC2 [Example 227, 2-(4-((5,7-dihydrofuro[3,4-b]pyridin-3-yl)oxy)piperidin-1-yl)-3,4-dimethyl-6,7-dihydro-5H-pyrrolo[3,4-b]pyridin-5-one] | 435 nM
16 | CCc1cc2c(nc1N1CCC(Oc3ccc4cnn(C)c4c3)CC1)CN(CCO)C2=O [Example 268A, 3-ethyl-6-(2-hydroxyethyl)-2-(4-((1-methyl-1H-indazol-6-yl)oxy)piperidin-1-yl)-6,7-dihydro-5H-pyrrolo[3,4-b]pyridin-5-one] | 169 nM

Row | SMILES | EC50
17 | Cc1cc2c(nc1N1CCC(Oc3cccc(C#N)c3)CC1)CN(C(C)C)C2=O [Example 246, 3-((1-(6-isopropyl-3-methyl-5-oxo-6,7-dihydro-5H-pyrrolo[3,4-b]pyridin-2-yl)piperidin-4-yl)oxy)benzonitrile] | 125 nM
18 | CCc1cc2c(nc1N1CCC(Oc3ccc4c(c3)OCC4)CC1)CN(CCO)C2=O [Example 265A, 2-(4-((2,3-dihydrobenzofuran-6-yl)oxy)piperidin-1-yl)-3-ethyl-6-(2-hydroxyethyl)-6,7-dihydro-5H-pyrrolo[3,4-b]pyridin-5-one] | 100 nM
19 | CCc1cc2c(nc1N1CCC(OCC3CC3)CC1)CNC2=O [Example 176A, 2-(4-(cyclopropylmethoxy)piperidin-1-yl)-3-ethyl-6,7-dihydro-5H-pyrrolo[3,4-b]pyridin-5-one] | 264 nM
20 | Cc1cc2c(nc1N1CCC(Oc3ccc(F)cc3)CC1)CN(CCO)C2=O [Example 264, 2-(4-(4-Fluorophenoxy)piperidin-1-yl)-6-(2-hydroxyethyl)-3-methyl-6,7-dihydro-5H-pyrrolo[3,4-b]pyridin-5-one] | 36 nM
21 | Cc1cc2c(nc1N1CCC(OC[C@@]3(C)CC3(F)F)CC1)CNC2=O [Example 8A, (R)-2-(4-((2,2-difluoro-1-methylcyclopropyl)methoxy)piperidin-1-yl)-3-methyl-6,7-dihydro-5H-pyrrolo[3,4-b]pyridin-5-one] | 87 nM
22 | CCn1cc(OC2CCN(c3nc4c(cc3C)C(=O)NC4)CC2)cn1 [Example 169A, 2-(4-((1-ethyl-1H-pyrazol-4-yl)oxy)piperidin-1-yl)-3-methyl-6,7-dihydro-5H-pyrrolo[3,4-b]pyridin-5-one] | 180 nM
23 | COc1ccc(O[C@H]2CCN(c3nc4c(cc3C)C(=O)NC4)C[C@@H]2C)cn1 (single isomer, unassigned) [Example 2B] | 734 nM
24 | Cc1c(N2CC[C@@H](Oc3ccc4c(c3)COCC4)[C@@H](F)C2)nc2c(c1C)C(=O)NC2 [Example 194A, 2-((3S,4R)-3-fluoro-4-(isochroman-7-yloxy)piperidin-1-yl)-3,4-dimethyl-6,7-dihydro-5H-pyrrolo[3,4-b]pyridin-5-one] | 20 nM
25 | COc1ccc(OC2CCN(c3nc4c(cc3C)C(=O)N(CCN(C)C)C4)CC2)cn1 [Example 235, 6-(2-(dimethylamino)ethyl)-2-(4-((6-methoxypyridin-3-yl)oxy)piperidin-1-yl)-3-methyl-6,7-dihydro-5H-pyrrolo[3,4-b]pyridin-5-one] | 324 nM
26 | COc1ccc(OC2CCN(c3nc4c(cc3C)C(=O)N(CC3COC3)C4)CC2)cn1 [Example 250A, 2-(4-((6-methoxypyridin-3-yl)oxy)piperidin-1-yl)-3-methyl-6-(oxetan-3-ylmethyl)-6,7-dihydro-5H-pyrrolo[3,4-b]pyridin-5-one] | 70 nM
27 | Cc1cc2c(nc1N1CCC(Oc3cnc4c(c3)OCC4)CC1)CNC2=O [Example 216A, 2-(4-((2,3-dihydrofuro[3,2-b]pyridin-6-yl)oxy)piperidin-1-yl)-3-methyl-6,7-dihydro-5H-pyrrolo[3,4-b]pyridin-5-one] | 288 nM
28 | Cc1cc2c(nc1N1CC[C@@H](Oc3ccc4c(c3)COC4)[C@@H](F)C1)[C@H](CO)N(C)C2=O [Example 277, (R)-2-((3S,4R)-4-((1,3-dihydro-2-benzofuran-5-yl)oxy)-3-fluoropiperidin-1-yl)-7-(hydroxymethyl)-3,6-dimethyl-6,7-dihydro-5H-pyrrolo[3,4-b]pyridin-5-one] | 3400 nM
29 | Cc1cc2c(nc1N1CCC(Oc3ccc4[nH]nnc4c3)CC1)CNC2=O [Example 163A, 2-(4-((1H-benzo[d][1,2,3]triazol-5-yl)oxy)piperidin-1-yl)-3-methyl-6,7-dihydro-5H-pyrrolo[3,4-b]pyridin-5-one] | 1140 nM
30 | Cc1cc2c(nc1N1CCC(Oc3cnc4c(c3)NCCO4)CC1)CNC2=O [Example 145, 2-(4-((2,3-dihydro-1H-pyrido[2,3-b][1,4]oxazin-7-yl)oxy)piperidin-1-yl)-3-methyl-6,7-dihydro-5H-pyrrolo[3,4-b]pyridin-5-one] | 2160 nM
31 | Cc1cc2c(nc1N1CCC(OCCC3(C)CC3)CC1)CNC2=O [Example 65A, 3-methyl-2-(4-(2-(1-methylcyclopropyl)ethoxy)piperidin-1-yl)-6,7-dihydro-5H-pyrrolo[3,4-b]pyridin-5-one] | 164 nM
32 | Cc1c(N2CC[C@@H](OCC3(C)CC3)[C@@H](F)C2)nc2c(c1C)C(=O)N(CCO)C2 [Example 268F, 2-((3S,4R)-3-fluoro-4-((1-methylcyclopropyl)methoxy)piperidin-1-yl)-6-(2-hydroxyethyl)-3,4-dimethyl-6,7-dihydro-5H-pyrrolo[3,4-b]pyridin-5-one] | 39 nM
